Source: US5167949A, “4(3H)-pteridinones, preparation processes and drugs containing them” (Lipha, Lyonnaise Industrielle Pharmaceutique, priority 1989, dated 1992)
Read-outs that look alike come from different tables or passages of the source.

How the values were obtained:
in vivo = conditions: read-out: median lethal dose
Method: By way of illustration, for the compound described in Example 1, the median lethal doses determined orally on rats and on mice are above 2,000 mg/kg, and the median lethal doses determined intraperitoneally and intravenously on mice are above 1,600 mg/kg.

[1] = test system: passive cutaneous anaphylaxis; experiment: passive cutaneous anaphylaxis (PCA) test; assay type: in vivo; conditions: Rattus norvegicus, rats, dose decreasing by 50% the skin area occupied by the dye
Method: The anti-allergic activity was measured in rats by the passive cutaneous anaphylaxis or PCA test described by I. Mota, Life Sciences 1963, 7, 465 and Z. Ovary et al., Proceedings of Society of Experimental Biology and Medicine 1952, 81, 584.
In this test, the skin of rats is sensitized by 4 intradermal injections of a homologous anti-ovalbumin serum diluted 15-fold. On the day following sensitization, the animals receive 1 ml/kg of a 2.5% saline solution of Evans blue and 1 ml/kg of a 2.5% saline solution of ovalbumin simultaneously by intravenous injection. The test compounds are administered before the antigen, the time interval being 5 min by intraperitoneal injection and 10 min by the oral route. Thirty minutes after injection of the ovalbumin/dye mixture, the animals are sacrificed and the intensity of the allergic response is determined by measuring the area of skin coloration. The protection provided by the products of the invention is expressed as an ED50 (dose decreasing by 50% the skin area occupied by the dye). Four rats are used for each dose of product.

PAF-acether = experiment: bronchospasm induced in anaesthetized guinea pigs by PAF-acether; assay type: in vivo; conditions: Cavia porcellus, intravenous, PAF-acether 10 ng/kg/IV
From the text: The compounds described are distinguished, in addition, from known products by their long duration of action and by a capacity for antagonizing the effects of PAF-acether, especially its bronchoconstrictor effects.

[2] = ip, intraperitoneal, 5 min before antigen

| SMILES | ED50 [1, 2] [mg/kg] | ED50 ([1]; oral, 10 min before antigen) [mg/kg] | further results |
| --- | --- | --- | --- |
| CCOCc1nc2nccnc2c(=O)[nH]1 [Example 1, 2-Ethoxymethyl-4(3H)-pteridinone] | 7 | 24 | LD50 (in vivo; mouse, ip, mice, intraperitoneal): > 1600 mg/kg; LD50 (in vivo; mouse, mice, intravenous): > 1600 mg/kg; LD50 (in vivo; mouse, mice, oral): > 2000 mg/kg; LD50 (in vivo; rat, rats, oral): > 2000 mg/kg; ED50 (PAF-acether): 0.068 mg/kg |
| COCc1nc2nccnc2c(=O)[nH]1 [Example 3, 2-Methoxymethyl-4(3H)-pteridinone] | 14 | 33 | – |
| CCCOCc1nc2nccnc2c(=O)[nH]1 [Example 4, 2-Propoxymethyl-4(3H)-pteridinone] | 9 | 25 | – |
| CCOCc1nc2nc(O)cnc2c(=O)[nH]1 [Example 7, 2-Ethoxymethyl-7-hydroxy-4(3H)-pteridinone] | 21 | – | – |
| O=c1[nH]c(COc2ccccc2)nc2nccnc12 [Example 9, 2-Phenoxymethyl-4(3H)-pteridinone] | 39 | – | – |
| O=c1[nH]c(COCc2ccccc2)nc2nccnc12 [Example 11, 2-Benzyloxymethyl-4(3H)-pteridinone] | 10 | 48 | – |
| COCOCc1nc2nccnc2c(=O)[nH]1 [Example 12, 2-Methoxymethoxymethyl-4(3H)-pteridinone] | 18 | – | – |
| CC(C)OCc1nc2nccnc2c(=O)[nH]1 [Example 13, 2-Isopropoxymethyl-4(3H)-pteridinone] | 14 | – | – |
